In data set [1] the target is T1, 5-hydroxytryptamine receptor 1A (Homo sapiens, UniProt P08908).
T1 sequence (P08908 whole entry): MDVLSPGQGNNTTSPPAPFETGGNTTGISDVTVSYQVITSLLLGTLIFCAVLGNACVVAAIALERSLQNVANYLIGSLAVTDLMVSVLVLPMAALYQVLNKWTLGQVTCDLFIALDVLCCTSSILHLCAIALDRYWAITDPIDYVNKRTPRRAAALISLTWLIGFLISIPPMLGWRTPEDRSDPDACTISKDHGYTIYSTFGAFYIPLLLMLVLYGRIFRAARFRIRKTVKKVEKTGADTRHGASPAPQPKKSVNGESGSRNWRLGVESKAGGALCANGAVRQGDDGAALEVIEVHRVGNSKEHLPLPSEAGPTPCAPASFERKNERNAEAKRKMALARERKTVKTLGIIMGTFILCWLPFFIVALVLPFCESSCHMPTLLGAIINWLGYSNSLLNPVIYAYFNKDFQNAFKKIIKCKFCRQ
Put plainly: Displacement of [3H]8-OH-DPAT from human cloned 5HT1A receptor by filtration techniques.

The target of data set [2] is T2, Sodium-dependent dopamine transporter (Homo sapiens, UniProt Q01959). Put plainly: Displacement of [3H]WIN-35428 from human DAT expressed in HEK293 cells by scintillation proximity assay. Format: cell-based.
T2 sequence (Q01959 whole entry): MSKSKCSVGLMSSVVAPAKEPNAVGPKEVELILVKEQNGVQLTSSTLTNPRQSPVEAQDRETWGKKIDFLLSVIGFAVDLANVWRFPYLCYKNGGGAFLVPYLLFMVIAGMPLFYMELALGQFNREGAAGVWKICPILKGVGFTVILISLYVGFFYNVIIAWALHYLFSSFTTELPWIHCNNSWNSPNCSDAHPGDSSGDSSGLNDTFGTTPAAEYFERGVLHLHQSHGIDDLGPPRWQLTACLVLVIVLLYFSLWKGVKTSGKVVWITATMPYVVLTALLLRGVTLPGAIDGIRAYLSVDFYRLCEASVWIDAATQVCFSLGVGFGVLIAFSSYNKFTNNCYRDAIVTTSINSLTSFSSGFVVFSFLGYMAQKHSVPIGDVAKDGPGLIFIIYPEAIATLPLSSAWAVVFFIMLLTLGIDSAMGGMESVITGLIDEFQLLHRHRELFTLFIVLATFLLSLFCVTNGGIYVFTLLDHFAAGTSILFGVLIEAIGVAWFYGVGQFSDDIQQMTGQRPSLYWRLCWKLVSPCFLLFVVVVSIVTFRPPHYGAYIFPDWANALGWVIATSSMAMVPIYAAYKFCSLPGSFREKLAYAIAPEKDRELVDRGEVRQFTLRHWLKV
The target of data set [3] is T3, Sodium-dependent noradrenaline transporter (Homo sapiens, UniProt P23975). Nature of the data set: Displacement of [3H]nisoxetine from human NET expressed in HEK293 cells by scintillation proximity assay. Format: cell-based. (Loss of bound radioactivity is the signal in a displacement assay; it reports binding, not function.)
T3 sequence (P23975 whole entry): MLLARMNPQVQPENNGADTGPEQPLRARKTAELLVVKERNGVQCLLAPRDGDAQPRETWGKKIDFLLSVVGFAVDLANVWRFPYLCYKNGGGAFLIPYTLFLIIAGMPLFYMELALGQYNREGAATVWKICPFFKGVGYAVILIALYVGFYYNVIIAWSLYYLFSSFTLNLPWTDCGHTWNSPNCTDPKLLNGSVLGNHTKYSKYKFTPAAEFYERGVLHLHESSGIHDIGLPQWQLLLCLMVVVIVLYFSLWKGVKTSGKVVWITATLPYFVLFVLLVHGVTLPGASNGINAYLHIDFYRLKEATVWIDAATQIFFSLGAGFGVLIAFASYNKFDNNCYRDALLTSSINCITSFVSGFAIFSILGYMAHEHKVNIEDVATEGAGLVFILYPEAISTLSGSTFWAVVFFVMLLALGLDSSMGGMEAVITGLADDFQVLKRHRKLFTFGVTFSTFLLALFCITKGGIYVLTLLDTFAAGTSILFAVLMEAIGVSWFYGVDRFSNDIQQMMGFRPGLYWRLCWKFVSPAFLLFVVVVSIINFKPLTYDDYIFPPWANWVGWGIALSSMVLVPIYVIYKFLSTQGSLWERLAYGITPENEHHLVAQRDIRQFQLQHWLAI
The target in data set [4] is T4, Sodium-dependent serotonin transporter (Homo sapiens, UniProt P31645). Put plainly: Displacement of [3H]citalopram from human SERT expressed in HEK293 cells by scintillation proximity assay. Format: cell-based.
T4 sequence (P31645 whole entry): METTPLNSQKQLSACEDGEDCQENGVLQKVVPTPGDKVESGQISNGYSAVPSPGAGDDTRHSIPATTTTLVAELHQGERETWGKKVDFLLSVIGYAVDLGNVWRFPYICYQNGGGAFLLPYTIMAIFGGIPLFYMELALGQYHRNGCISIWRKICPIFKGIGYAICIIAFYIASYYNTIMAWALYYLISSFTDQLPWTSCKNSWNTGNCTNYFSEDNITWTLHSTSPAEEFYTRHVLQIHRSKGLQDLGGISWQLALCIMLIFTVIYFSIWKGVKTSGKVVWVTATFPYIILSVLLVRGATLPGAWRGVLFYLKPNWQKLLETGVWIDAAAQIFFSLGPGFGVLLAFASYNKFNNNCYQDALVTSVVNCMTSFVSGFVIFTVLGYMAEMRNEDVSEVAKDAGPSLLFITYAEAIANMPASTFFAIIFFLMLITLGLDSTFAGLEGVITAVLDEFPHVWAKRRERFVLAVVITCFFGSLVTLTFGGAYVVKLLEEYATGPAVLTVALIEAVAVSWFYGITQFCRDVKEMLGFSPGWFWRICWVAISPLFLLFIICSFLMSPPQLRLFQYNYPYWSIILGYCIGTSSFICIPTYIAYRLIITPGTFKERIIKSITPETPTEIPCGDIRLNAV
In data set [5] the target is T3, Sodium-dependent noradrenaline transporter. Put plainly: Agonist activity at NET. Format: functional.
For data set [6], the target named is T4, Sodium-dependent serotonin transporter. Nature of the data set: Agonist activity at SERT. Format: functional.
For data set [7], the target named is T2, Sodium-dependent dopamine transporter. Put plainly: Agonist activity at DAT. Format: functional.
For data set [8], the target named is T1, 5-hydroxytryptamine receptor 1A. Put plainly: Agonist activity at 5HT1A receptor by GTPgammaS assay. Format: functional.
Data set [9] is described as follows: Ratio of EC50 for SERT to EC50 for NET.
Data set [10] concerns the target T5, 5-hydroxytryptamine receptor 1A (Homo sapiens) (UniProt P08908).
T5 sequence (whole entry): T1 sequence (P08908 whole entry)
Put plainly: Intrinsic activity at 5HT1A receptor by GTPgammaS assay. Format: functional.

Data set [11] concerns Rattus norvegicus. Nature of the data set: Ex vivo 5HT1A receptor occupancy in rat brain at 10 mg/kg, sc after 1 hr. Particulars: route subcutaneous. Format: functional.
The subject of data set [12] is Rattus norvegicus. Put plainly: Ex vivo NET occupancy in rat brain at 10 mg/kg, sc after 1 hr. Format: functional. To be noted: route subcutaneous.
Data set [13] can be described thus: Plasma concentration rat at 10 mg/kg, sc after 1 hr. Format: ADME, organism-based. On the set-up: dose 10 mg/kg, route subcutaneous.

Consider 19 molecules from ChEMBL document CHEMBL1158522, “Design, synthesis, and pharmacological evaluation of phenoxy pyridyl derivatives as dual norepinephrine reuptake inhibitors and 5-HT1A partial agonists” (Bioorg Med Chem Lett, 2010).

For the molecule `c1ccc(Oc2ncccc2C2CCNCC2)cc1`, the inhibitory constant (Ki) in data set [1] was 101 nM; in [2], 4310 nM; in [3], 2440 nM.
For the molecule `COc1cccc(F)c1Oc1ncccc1C1CCNCC1`, the inhibitory constant (Ki) worked out at 24 nM in data set [1], 6410 nM in data set [2], 887 nM in data set [4] and 276 nM in data set [3].
For `Clc1cccc(Oc2ncccc2C2CCNCC2)c1Cl` the same measures were 37 nM, 310 nM, 2 nM and 25 nM.
The matching figures for `Fc1ccccc1Oc1ncccc1C1CCNCC1`: 13 nM, > 6180 nM, 728 nM and 536 nM.
As for `Cc1cccc(F)c1Oc1ncccc1C1CCNCC1`, the Ki in data set [1] was 10 nM; in data set [2], > 6370 nM; in data set [4], 102 nM; in [3], 27 nM.
The matching figures for `Cc1ccccc1Oc1ncccc1C1CCNCC1`: 60 nM, > 6170 nM, 292 nM and 330 nM.
Regarding `Fc1cccc(Cl)c1Oc1ncccc1C1CCNCC1`, the EC50 in data set [5] was found to be 9 nM; in data set [6], 409 nM; in [7], 6880 nM; in data set [8], 89 nM. In addition, the inhibitory constant (Ki) in data set [1] was 11 nM; in [2], > 6180 nM; in [4], 194 nM; in data set [3], 33 nM. For the same molecule, in data set [9], the Ratio EC50 was 45. The molecule further showed an Intrinsic activity in [10] of 37%. The values for the Activity in data set [11] and in data set [12] were 37.4% and 75.3%, respectively. In data set [13], the concentration at 1 h worked out at 777 ng/mL.
Consider `FC(F)(F)c1ccccc1Oc1ncccc1C1CCNCC1`, for which the inhibitory constant (Ki) was 71 nM in data set [1], > 6650 nM in [2], 203 nM in data set [4] and 140 nM in [3].
As for `Fc1ccccc1Oc1cccc(F)c1C1CCNCC1`, the EC50 in [5] is 28 nM; in data set [6], 915 nM; in data set [7], 498 nM; in data set [8] it was 341 nM. The inhibition constant Ki in data set [1] is 4.6 nM; in data set [2], 278 nM; in [4] it was 1260 nM; in [3] it was 32 nM. The Ratio EC50 in [9] is 33. For the same molecule, the Intrinsic activity in data set [10] stood at 84%.
As for `Fc1ccc(Cl)c(Oc2ncccc2C2CCNCC2)c1`, the inhibitory constant (Ki) in data set [1] was 17 nM; in data set [2] it was > 6220 nM; in data set [4], 251 nM; in [3], 247 nM.
`Clc1ccccc1Oc1ncccc1N1CCNCC1`: the inhibitory constant (Ki) in data set [1] is 4.5 nM; in data set [2] it was > 6320 nM; in data set [4], > 4710 nM; in [3], 747 nM.
As for `Cc1ccc(Oc2ncccc2C2CCNCC2)c(F)c1`, the Ki in data set [1] was 5.5 nM; in data set [2], > 6140 nM; in data set [4], 36 nM; in data set [3] it was 921 nM.
For `Fc1cccc(Cl)c1Oc1ncccc1N1CCNCC1` the same measures were 3.7 nM, > 6320 nM, > 4710 nM and 663 nM.
For `Clc1ccc(Oc2ncccc2C2CCNCC2)c(Cl)c1` the same measures were 37 nM, > 5500 nM, 2.7 nM and 413 nM.
The matching figures for `COc1ccccc1Oc1ncccc1C1CCNCC1`: 92 nM, 6410 nM, 610 nM and 292 nM.
As to `Fc1cccc(Oc2ncccc2C2CCNCC2)c1F`, the Ki in data set [1] is 173 nM; in data set [2], > 6650 nM; in data set [4] it was 109 nM; in data set [3], 1810 nM.
Take `Fc1cccc(F)c1Oc1ncccc1C1CCNCC1`: the Ki in data set [1] is 7.2 nM; in data set [2], > 6630 nM; in data set [4], 1850 nM.
As for `Fc1ccc(Oc2ncccc2C2CCNCC2)c(F)c1`, the Ki stood at 29 nM in data set [1], 2590 nM in data set [2], 30 nM in data set [4] and 143 nM in [3].
The matching figures for `Clc1ccccc1Oc1ncccc1C1CCNCC1`: 16 nM, 5150 nM, 57 nM and 74 nM.

In general, Ki refers to a dissociation constant, usually derived from enzyme kinetics or from competition with a known ligand. A lower Ki goes with tighter binding. For orientation: EC50 means the concentration needed to bring the measured effect to its halfway point.
